Results as given in patent publication US10875860B2, “Azaindenoisoquinoline compounds and uses thereof” (Purdue Research Foundation, priority 2016, dated 2020).
Read-outs that look alike come from different tables or passages of the source.

Assays:
[1] = test system: MCF-7; assay: NCI-60 cytotoxicity, MCF-7; conditions: Homo sapiens, MCF7, read-out: Cytotoxicity (GI50) Breast MCF-7
[2] = test system: HCT-116; assay: NCI-60 cytotoxicity, HCT-116; assay type: cell-based; conditions: Homo sapiens, single determinations, Table 2, read-out: Cytotoxicity (GI50) Colon HCT-116
[3] = test system: SF-539; assay: NCI-60 cytotoxicity, SF-539; conditions: Homo sapiens, SF-539, read-out: Cytotoxicity (GI50) CNS SF-539
[4] = test system: UACC-62; assay: NCI-60 cytotoxicity, UACC-62; conditions: Homo sapiens, UACC-62, read-out: Cytotoxicity (GI50) Melanoma UACC-62
[5] = test system: HOP-62; assay: NCI-60 cytotoxicity, HOP-62; conditions: Homo sapiens, HOP-62, read-out: Cytotoxicity (GI50) Lung HOP-62
[6] = biological target: T1, Top1 (Homo sapiens, UniProt P11387); assay: Top1-mediated DNA cleavage assay; assay type: biochemical; design: Top1 inhibitory activity level / Top1 inhibitory activity score: key to the marks not given beside the values
T1 sequence (P11387 1-765): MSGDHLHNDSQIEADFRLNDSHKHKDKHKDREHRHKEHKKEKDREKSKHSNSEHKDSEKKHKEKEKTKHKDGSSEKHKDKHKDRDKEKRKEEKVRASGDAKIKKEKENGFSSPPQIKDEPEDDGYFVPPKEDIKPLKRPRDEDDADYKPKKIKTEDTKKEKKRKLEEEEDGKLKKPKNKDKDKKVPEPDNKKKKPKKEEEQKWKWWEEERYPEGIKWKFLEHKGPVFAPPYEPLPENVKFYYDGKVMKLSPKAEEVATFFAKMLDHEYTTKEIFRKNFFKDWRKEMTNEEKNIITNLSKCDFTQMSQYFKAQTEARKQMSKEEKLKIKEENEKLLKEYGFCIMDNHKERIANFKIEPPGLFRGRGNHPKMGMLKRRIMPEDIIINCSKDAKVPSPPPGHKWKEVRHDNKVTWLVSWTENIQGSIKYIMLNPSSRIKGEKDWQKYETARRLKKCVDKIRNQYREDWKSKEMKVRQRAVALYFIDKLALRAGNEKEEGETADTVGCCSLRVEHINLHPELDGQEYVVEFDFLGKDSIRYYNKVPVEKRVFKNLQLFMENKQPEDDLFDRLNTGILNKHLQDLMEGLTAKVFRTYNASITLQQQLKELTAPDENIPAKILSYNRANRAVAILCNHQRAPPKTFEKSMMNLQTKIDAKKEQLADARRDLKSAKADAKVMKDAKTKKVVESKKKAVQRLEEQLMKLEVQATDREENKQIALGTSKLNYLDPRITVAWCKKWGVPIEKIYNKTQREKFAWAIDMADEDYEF

[7] = biological target: T2, recombinant human TDP2 (Homo sapiens, UniProt O95551); assay: Recombinant Tdp2 assay; assay type: biochemical
T2 sequence (O95551 1-362): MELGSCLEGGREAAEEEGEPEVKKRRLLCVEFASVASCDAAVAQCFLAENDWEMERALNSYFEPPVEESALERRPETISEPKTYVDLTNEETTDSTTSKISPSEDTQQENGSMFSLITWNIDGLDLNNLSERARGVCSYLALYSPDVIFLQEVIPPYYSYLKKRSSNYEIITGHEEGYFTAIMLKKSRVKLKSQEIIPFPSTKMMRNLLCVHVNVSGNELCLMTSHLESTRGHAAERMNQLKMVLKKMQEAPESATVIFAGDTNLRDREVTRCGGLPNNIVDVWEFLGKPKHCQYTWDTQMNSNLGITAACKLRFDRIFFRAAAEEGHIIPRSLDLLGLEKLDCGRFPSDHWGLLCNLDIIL

[8] = biological target: Tdp1 (Homo sapiens, UniProt Q9NUW8); assay: Recombinant Tdp1 assay; assay type: biochemical
Tdp1, sequence (Q9NUW8 whole entry): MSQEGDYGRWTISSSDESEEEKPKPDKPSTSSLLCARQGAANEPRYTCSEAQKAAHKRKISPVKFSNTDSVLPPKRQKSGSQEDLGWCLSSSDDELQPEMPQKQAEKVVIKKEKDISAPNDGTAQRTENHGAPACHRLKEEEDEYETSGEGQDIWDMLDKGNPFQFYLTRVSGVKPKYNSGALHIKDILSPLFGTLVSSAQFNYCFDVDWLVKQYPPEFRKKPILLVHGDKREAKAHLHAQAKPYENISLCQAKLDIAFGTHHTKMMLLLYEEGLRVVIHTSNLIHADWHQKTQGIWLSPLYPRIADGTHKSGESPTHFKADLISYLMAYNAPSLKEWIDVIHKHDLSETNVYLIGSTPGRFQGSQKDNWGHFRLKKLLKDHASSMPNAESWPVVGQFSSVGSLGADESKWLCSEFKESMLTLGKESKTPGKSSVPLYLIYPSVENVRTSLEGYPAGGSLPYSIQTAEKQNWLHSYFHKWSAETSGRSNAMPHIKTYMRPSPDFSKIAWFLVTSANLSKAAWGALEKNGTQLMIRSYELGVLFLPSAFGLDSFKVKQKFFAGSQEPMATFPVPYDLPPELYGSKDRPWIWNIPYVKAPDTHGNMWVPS

[9] = test system: OVCAR-3; assay: NCI-60 cytotoxicity, OVCAR-3; conditions: Homo sapiens, OVCAR-3, read-out: Cytotoxicity (GI50) Ovarian Ovcar-3
[10] = test system: NCI-60 panel of human cancer cell lines; assay: NCI-60 screen, mean graph midpoint over all cell lines; conditions: Homo sapiens, read-out: Cytotoxicity (GI50) MGM
[11] = test system: DU-145; assay: NCI-60 cytotoxicity, DU-145; assay type: cell-based; conditions: Homo sapiens, single determinations, Table 2, read-out: Cytotoxicity (GI50) Prostate DU-145
[12] = test system: SN12C; assay: NCI-60 cytotoxicity, SN12C; conditions: Homo sapiens, read-out: Cytotoxicity (GI50) Renal SN12C
[13] = DNA cleavage relative to 1 μM MJ-III-65 (19) and 1 μM camptothecin (18), Table 2
[14] = determined in duplicate, Table 2, read-out: Enzyme Inhibitory Activity Tdp2 (IC50)
[15] = determined in duplicate, Table 2, read-out: Enzyme Inhibitory Activity Tdp1 (IC50)
[16] = read-out: Enzyme Inhibitory Activity Tdp1 (IC50)

Row | Structure (SMILES) | Enzyme Inhibitory Activity Top1 [6, 13] | IC50 [7, 14] | IC50 [8, 15] | GI50 [1] | GI50 [2] | GI50 [3] | GI50 [4] | GI50 [5] | GI50 [9] | GI50 [10] | GI50 [11] | Top1 inhibitory activity score ([6]; running text b88 on series 2, tested at 0.1, 1, 10 and 100 μM) | GI50 [12] | IC50 [8, 16] | Enzyme Inhibitory Activity Top1 ([6]; DNA cleavage relative to 1 μM MJ-III-65 (19) and 1 μM camptothecin (18), Table 1) | IC50 [7] | IC50 [8] | Enzyme Inhibitory Activity Top1 [6] | IC50 ([7]; semiquantitative scale, in duplicate, Table 1, read-out: Enzyme Inhibitory Activity Tdp2) | IC50 ([8]; semiquantitative scale, in duplicate, Table 1, read-out: Enzyme Inhibitory Activity Tdp1)
1 | COc1cnc2c(c1)C(=O)c1c-2n(CCCN2CCC(O)CC2)c(=O)c2cc(Cl)ccc12 [Compound 16d, 3-Chloro-6-(3-(4-hydroxypiperidin-1-yl)propyl)-9-methoxy-5H-pyrido[3′,2′:4,5]cyclopenta-[1,2-c]isoquinoline-5,11(6H)-dione] | ++++ | > 111000 nM | 14000 ± 1000 nM | 42 nM | 98 nM | 430 nM | 190 nM | 94 nM | 1420 nM | 660 nM | 270 nM | ++++ |  |  |  |  |  |  |  | 
2 | COc1cnc2c(c1)C(=O)c1c-2n(CCCN2CCNCC2)c(=O)c2cc(Cl)ccc12 [Compound 16e, 3-Chloro-9-methoxy-6-(3-(piperazin-1-yl)propyl)-5H-pyrido[3′,2′:4,5]cyclopenta[1,2-c]isoquinoline-5,11(6H)-dione] | + | > 111000 nM |  | 89 nM | 298 nM | 1330 nM | 1430 nM | 200 nM | 1430 nM | 580 nM | 242 nM |  | 489 nM | 20200 ± 3700 nM |  |  |  |  |  | 
3 | COc1cnc2c(c1)C(=O)c1c-2n(CCCNC(C)C)c(=O)c2cc(Cl)ccc12 [Compound 16f, 3-Chloro-9-methoxy-6-(3-(isopropylamino)propyl)-5H-pyrido[3′,2′:4,5]cyclopenta[1,2-c]isoquinoline-5,11(6H)-dione] | ++ | > 111000 nM | 33300 ± 4200 nM | 37 nM | 138 nM | 554 nM | 303 nM | 70 nM | 1390 nM | 380 nM | 173 nM |  | 417 nM |  |  |  |  |  |  | 
4 | COc1cnc2c(c1)C(=O)c1c-2n(CCCN2CCCC2)c(=O)c2cc(Cl)ccc12 [Compound 16i, 3-Chloro-9-methoxy-6-(3-(pyrrolidin-1-yl)propyl)-5H-pyrido[3′,2′:4,5]cyclopenta[1,2-c]isoquinoline-5,11(6H)-dione] |  |  |  |  |  |  |  |  |  |  |  |  |  | 27500 ± 600 nM |  |  |  |  |  | 
5 | COc1cnc2c(c1)C(=O)c1c-2n(CCCN2CCOCC2)c(=O)c2cc(F)ccc12 [Compound 17a, 3-Fluoro-9-methoxy-6-(3-morpholinopropyl)-5H-pyrido[3′,2′:4,5]cyclopenta[1,2c]-isoquinoline-5,11(6H)-dione] | +++ | > 111000 nM | > 111000 nM | 44 nM | 115 nM | 228 nM | 235 nM | 187 nM | 250 nM | 269 nM | 341 nM |  | 320 nM |  |  |  |  |  |  | 
6 | COc1cnc2c(c1)C(=O)c1c-2n(CCCn2ccnc2)c(=O)c2cc(F)ccc12 [Compound 17b, 6-(3-(1H-Imidazol-1-yl)propyl)-3-fluoro-9-methoxy-5H-pyrido[3′,2′:4,5]-cyclo-penta[1,2-c]isoquinoline-5,11(6H)-dione] | +++ | > 111000 nM | > 111000 nM | < 10 nM | < 10 nM | 24 nM | 16 nM | < 10 nM | 43 nM | 33 nM | < 10 nM |  | < 10 nM |  |  |  |  |  |  | 
7 | CC[C@@]1(O)C(=O)OCc2c1cc1n(c2=O)Cc2cc3ccccc3nc2-1 [Compound 18, camptothecin, reference compound] |  |  |  | 13 nM |  | < 10 nM | < 10 nM | < 10 nM |  | 40 nM |  |  | 20 nM |  | ++++ | > 111000 nM | > 111000 nM |  |  | 
8 | COc1cc2c3c(n(CCCNCCO)c(=O)c2cc1OC)-c1cc2c(cc1C3=O)OCO2 [Compound 19, reference compound] |  |  |  | < 10 nM |  | 40 nM | 30 nM | 20 nM | 500 nM | 210 nM |  |  | < 10 nM |  |  |  |  | ++++ | 1000 to 12000 nM | 12000 to 111000 nM

Further lines, with some results ahead:

Row | Enzyme Inhibitory Activity Top1 [6, 13] | IC50 [7, 14] | IC50 [8, 15] | Structure (SMILES) | GI50 [1] | GI50 [2] | GI50 [3] | GI50 [4] | GI50 [5] | GI50 [9] | GI50 [10] | GI50 [11] | Top1 inhibitory activity score ([6]; running text b88 on series 2, tested at 0.1, 1, 10 and 100 μM) | GI50 [12] | IC50 [8, 16] | Enzyme Inhibitory Activity Top1 ([6]; DNA cleavage relative to 1 μM MJ-III-65 (19) and 1 μM camptothecin (18), Table 1) | IC50 [7] | IC50 [8] | Enzyme Inhibitory Activity Top1 [6] | IC50 ([7]; semiquantitative scale, in duplicate, Table 1, read-out: Enzyme Inhibitory Activity Tdp2) | IC50 ([8]; semiquantitative scale, in duplicate, Table 1, read-out: Enzyme Inhibitory Activity Tdp1)
9 | +++ | > 111000 nM | > 111000 nM | COc1cnc2c(c1)C(=O)c1c-2n(CCCN2CCOCC2)c(=O)c2cc(Cl)ccc12 [Compound 16a, 3-Chloro-9-methoxy-6-(3-morpholinopropyl)-5H-pyrido[3′,2′:4,5]cyclopenta[1,2-c]isoquinoline-5,11(6H)-dione] | 90 nM | 160 nM | 230 nM | 180 nM | 270 nM | 780 nM | 100 nM | 410 nM |  |  |  |  |  |  |  |  | 
10 | +++ | > 111000 nM | > 111000 nM | COc1cnc2c(c1)C(=O)c1c-2n(CCCn2ccnc2)c(=O)c2cc(Cl)ccc12 [Compound 16b, 6-(3-(1H-Imidazol-1-yl)propyl)-3-chloro-9-methoxy-5H-pyrido[3′,2′:4,5]cyclopenta[1,2-c]isoquinoline-5,11(6H)-dione] | < 10 nM | 14 nM | 38 nM | 28 nM | 20 nM | 120 nM | 63 nM | 43 nM |  |  |  |  |  |  |  |  | 
11 |  |  | 22200 ± 6400 nM | CCNCCCn1c2c(c3ccc(Cl)cc3c1=O)C(=O)c1cc(OC)cnc1-2 [Compound 16h, 3-Chloro-9-methoxy-6-(3-(ethylamino)propyl)-5H-pyrido[3′,2′:4,5]cyclopenta[1,2-c]isoquinoline-5,11(6H)-dione] | < 10 nM | 203 nM | 506 nM | 532 nM | 122 nM | 2130 nM | 426 nM | 208 nM |  | 675 nM |  |  |  |  |  |  | 
12 | + |  | > 111000 nM | COc1cnc2c(c1)C(=O)c1c-2n(CCCN2CCN(C)CC2)c(=O)c2cc(Cl)ccc12 [Compound 16j, 3-Chloro-9-methoxy-6-(3-(4-methylpiperazin-1-yl)propyl)-5H-pyrido[3′,2′:4,5]cyclopenta[1,2-c]isoquinoline-5,11(6H)-dione] | 487 nM | 980 nM | 2150 nM | 1810 nM | 950 nM | 15100 nM | 2950 nM | 3180 nM |  | 10200 nM |  |  |  |  |  |  | 
